Test results published in US20250195552A1, “METHODS OF USING AVERMECTIN COMPOSITIONS FOR THE TREATMENT OF INFLAMMATORY DISORDERS AND DOSING REGIMENS” (priority 2022, published 2025).
Entries after “also recorded” stand apart in the source; their conditions may differ. Read-outs that look alike come from different tables or passages of the source.

Assays:
focal seizures = settings: cited from earlier work
human PBMCs = assay: IL-17 and IFN-γ secretion in PBMCs stimulated by anti-CD3/CD28 in vitro; format: cell-based; settings: anti-CD3/CD28 stimulation, 48 hours, ELISA
Description: The supernatants were analyzed for IL-17 and IFN-γ by ELISA. One representative of three different experiments is shown.

[1] = Ivermectin solubility determination in excipients
Description: The solubility assessments were performed by continually adding a known amount of the API into each individual excipient and letting the excipient reach solubility equilibrium via API saturation (visible solid observed). The experiments were conducted at ambient conditions (25° C.) and were left to mix on a stir plate at 500 RPM for at least 72 hours.

PBMCs of human subjects = assay: Phase 1: IL-17 secretion in PBMCs stimulated ex vivo after oral administration; settings: oral 10-120 mg, significant at 80 and 120 mg SAD and at all MAD doses, anti-CD3/CD28 48 hrs
Description: The supernatants were analyzed for IL-17 by ELISA.

[2] = test system: human CD4+ T cells activated under Th17 skewing conditions; assay: FoxP3 expression (RT-PCR) and percentage of FoxP3+ T cells (Flow Cytometry); format: cell-based; settings: 1.5 mM of ivermectin, 5 days
Description: FoxP3, IL-17A and RORc mRNA expression levels were tested by RT-PCR (A). The percentage of FoxP3^+ T cells was determined by Flow Cytometry by using intra-cellular staining with PE-conjugated anti-Foxp3 antibody (B).

[3] = test system: Th17-skewed human CD4+ T cells; assay: Cytokine secretion in Th17-skewed CD4+ T cells (ELISA); format: cell-based
Description: The supernatants were analyzed for IL-17, TL-21 and IFN-γ by ELISA.

LPS-induced human PBMCs = assay: LPS-induced secretion of TNF-α, IL-6 and IL-23 in PBMCs; format: cell-based; settings: PBMC, LPS activation for 2 days, ELISA
Description: The supernatants were analyzed for TNF-α, IL-6, and IL-23 by ELISA.

[4] = Pharmacokinetics of Ivermectin B1a in SD rat plasma after IV or oral administration
Description: Thirty-six male Sprague Dawley rats were randomly assigned into four groups, with nine male rats in each group. All animals in all groups are fasted overnight prior to the experimental date.
Blood samples were collected from 6 of 9 animals per group at 0.5, 1, 2, 3, 4, 6, 8, 24, 72, 120, 168 hours post-dose.

[5] = test system: Monocytes-derived dendritic cells (moDC); assay: TNF-α and IL-6 secretion in dendritic cells; format: cell-based, human; settings: moDC stimulated by Pam2CSK4 and Pam3CSK4, 24 hours, ELISA
Description: Monocytes-derived dendritic cells (moDC) were differentiated by culturing purified human monocytes with 25 ng/mL hGM-CSF and 50 ng/mL hTL-4 for 5-7 days to reach full differentiation. […] The supernatants were analyzed for IL-6 and TNF-α by ELISA. Bar graphs represent pooled data from 2-3 experiments.

C57BL/6 mice = assay: Experimental autoimmune encephalomyelitis (EAE) model of MS; format: in vivo, mouse; settings: 1, 2, 4 mg/kg oral once daily, therapeutic from Day 14 to Day 34
Description: Vehicle was 1.6% DMSO in water. […] These were frozen at −20° C. Every 3 to 4 days, one aliquot was thawed and diluted with water to create a fine suspension at 0.8 mg/mL (for 4 mg/kg dosing). Final DMSO concentration was 1.6%. […] Per customer, all dosing formulations were stable for up to 4 days at 4° C. FTY720 stock solution (30 mg/mL in ethanol) was prepared for all ongoing studies. Daily, the FTY720 stock solution was diluted with water to the final dosing concentration of 0.6 mg/mL.
A balanced distribution of mice was confirmed by comparing mean day of onset, average score at EAE onset, average score on Day 14 and average weight on Day 13.
EAE was induced on Day 0 by myelin oligodendrocyte glycoprotein (MOG35-55)/complete Freund's adjuvant (CFA) immunization, followed by pertussis toxin (PTX) injections on Days O and 1. Treatment was therapeutic, starting on Day 14. […] Treatment continued through Day 34. Mice were observed through the end of the study, Day 35.
Clinical scores were assessed as follows: 1=limp tail, 2=partial hind leg paralysis, 3=complete hind leg paralysis, 4=complete hindleg and partial front leg paralysis; 5=moribund.

Sprague-Dawley rats = assay: Animal model of infantile spasms (NMDA-induced); format: in vivo, rat; settings: 2 and 4 mg/kg i.p. daily P10-P15; p<0.05
Text: A two-stage model of infantile spasms was developed (FIG. 23A). Pregnant Sprague-Dawley rats receive two injections of betamethasone on gestational (G) day 15. Offspring of those pregnancies are used for experiments during infancy, postnatal days (P) 10-15. Spasms are induced by i.p. injection of N-methyl-D-aspartic acid (NMDA), which is graded depending on the postnatal age of the subjects.
Days of dosing were P10, P11, P12, P13, P14 and P15.

[6] = test system: TLR-induced human monocytes; assay: IL-1β secretion in TLR-induced monocytes; format: cell-based; settings: induced by LPS, Pam2CSK4 and Pam3CSK4 (100 ng/ml), 24 hours, ELISA
Description: The supernatants were analyzed for IL-1β by ELISA.

[7] = test system: STAT3 and IkBα phosphorylation in human CD4+ T cells; assay: Th17-induced STAT3 and IkBα phosphorylation (Western Blot); format: cell-based; settings: Th17-skewing conditions, 2 hours
Description: The cell lysates were prepared and analyzed by Western Blot. One representative of three different experiments is shown.

[8] = single IV 2 mg/kg, fasting male SD rats, n = 6

Cc1cc(N2CCc3cc(F)ccc3C2)cc(C)c1NC(=O)CC(C)(C)C [XEN1101]
Placebo-adjusted >50% Focal Seizure Reduction (focal seizures; 25 mg): 40% | Placebo-adjusted Median Reduction in Focal Seizure Frequency (focal seizures; 25 mg): 35%

CC[C@@H](C(N)=O)N1CCCC1=O [KEPPRA, Leviteracetam]
Placebo-adjusted >50% Focal Seizure Reduction (focal seizures; 3000 mg): 29% | Placebo-adjusted Median Reduction in Focal Seizure Frequency (focal seizures; 3000 mg): 23-31%

CCC(C)C1OC2(CCC1C)CC1CC(CC=C(C)C(OC3CC(OC)C(OC4CC(OC)C(O)C(C)O4)C(C)O3)C(C)C=CC=C3COC4C(O)C(C)=CC(C(=O)O1)C34O)O2 (stereo not drawn) [Ivermectin]
EC50 (human PBMCs; read-out: EC50, decrease of IFN-γ): 987 nM | EC50 (human PBMCs; read-out: EC50, decrease of IL-17): 416 nM | Solubility ([1]; in Capryol 90, 25° C.): 150.92 mg/g | Solubility ([1]; in Fractionated Coconut oil, 25° C.): 16.55 mg/g | Solubility ([1]; in Glycerin, 25° C.): <0.1 mg/g | Solubility ([1]; in Kolliphor EL, 25° C.): 95.85 mg/g | Solubility ([1]; in Labrafil M 2125 CS, 25° C.): 35.32 mg/g | Solubility ([1]; in Labrasol ALF, 25° C.): 126.36 mg/g | Solubility ([1]; in LauroglycolTM FCC, 25° C.): 71.96 mg/g | Solubility ([1]; in Maisine CC, 25° C.): 60.17 mg/g | Solubility ([1]; in Masester E8120, 25° C.): 164.06 mg/g | Solubility ([1]; in Medium Chain Triglyceride, 25° C.): 16.49 mg/g | Solubility ([1]; in Oleic acid, 25° C.): 48.58 mg/g | Solubility ([1]; in Olive oil, 25° C.): 4.71 mg/g | Solubility ([1]; in PEG 400, 25° C.): 112.92 mg/g | Solubility ([1]; in Propylene glycol, 25° C.): 25.61 mg/g | Solubility ([1]; in Soybean oil, 25° C.): 6.72 mg/g | Solubility ([1]; in Span 20, 25° C.): 97.66 mg/g | Solubility ([1]; in Span 80, 25° C.): 54.04 mg/g | Solubility ([1]; in Triacetin, 25° C.): 58.75 mg/g | Solubility ([1]; in Tween 80, 25° C.): 88.26 mg/g | Solubility ([1]; in Vitamin E TPGS, table title 25° C., text: conducted at 40° C.): 82.98 mg/g | ability of T cells to secrete IL-17 in response to TCR stimulation ex vivo (PBMCs of human subjects): down-regulates | increase in the percentage of Foxp3+ T cells ([2]; Flow Cytometry): 50% | FoxP3 mRNA levels ([2]; RT-PCR): up-regulation | IL-17A mRNA expression ([2]; RT-PCR): decreased | RORc mRNA expression ([2]; RT-PCR): decreased | EC50 ([3]; Th17-skewing conditions, additional experiment (FIG. 6B), read-out: EC, inhibition of CXCL13 secretion): 378 nM | EC50 ([3]; anti-CD3/CD28 + IL-1β + TGF-β (Th17-skewing), 48 hours, ELISA, read-out: EC50, inhibition of IFN-γ secretion): 541 nM | EC50 ([3]; anti-CD3/CD28 + IL-1β + TGF-β (Th17-skewing), 48 hours, ELISA, read-out: EC50, inhibition of IL-17 secretion): 450 nM | EC50 ([3]; anti-CD3/CD28 + IL-1β + TGF-β (Th17-skewing), 48 hours, ELISA, read-out: EC50, inhibition of IL-21 secretion): 364 nM | EC50 (LPS-induced human PBMCs; read-out: EC50, decrease of IL-6): 1300 nM | EC50 (LPS-induced human PBMCs; read-out: EC50, decrease of IL-23): 470 nM | EC50 (LPS-induced human PBMCs; read-out: EC50, decrease of TNF-α): 1400 nM | AUC(0-t) [4, 8]: 8259.31 ng·h/mL | AUC(0-∞) [4, 8]: 8273.53 ng·h/mL | Cmax [4, 8]: 1722.67 ng/mL | MRT(0-t) [4, 8]: 10.58 h | MRT(0-∞) [4, 8]: 10.81 h | T1/2 [4, 8]: 14.82 h | T1/2 ([4]; single IV injection 2 mg/kg, male SD rats with fasting): 14.82 ± 0.72 h | IL-6 secretion [5]: significantly and in a dose-dependent manner down-regulates; also recorded: dose dependent decrease | TNF-α secretion [5]: significantly and in a dose-dependent manner down-regulates; also recorded: dose dependent decrease | limb paralysis (clinical score) in EAE model of MS (C57BL/6 mice): significantly downregulates limb paralysis | occurrence (number) of spasms triggered on P15 vs vehicle controls (Sprague-Dawley rats): significantly suppressed occurrence of spasms; also recorded: significantly fewer spasms | IL-1β secretion [6]: significantly down-regulates; also recorded: reduced IL-1β in a dose-dependent manner | STAT3 phosphorylation [7]: dose-dependent reduction | inhibitor molecule protein (IkB)α phosphorylation [7]: dose-dependent reduction

NC(=O)O[C@@H](Cn1ncnn1)c1ccccc1Cl [XCOPRI, Cenobamate]
Placebo-adjusted >50% Focal Seizure Reduction (focal seizures; 400 mg): 39% | Placebo-adjusted Median Reduction in Focal Seizure Frequency (focal seizures; 4200 mg): 31%

NC(=O)N1c2ccccc2C[C@H](O)c2ccccc21 [APTIOM, Eslicarbazepine]
Placebo-adjusted >50% Focal Seizure Reduction (focal seizures; 1200 mg): 20% | Placebo-adjusted Median Reduction in Focal Seizure Frequency (focal seizures; 2000 mg): 14-24%

CCC[C@@H]1CC(=O)N([C@@H](CC)C(N)=O)C1 [BRIVIACT, Brivaracetam]
Placebo-adjusted >50% Focal Seizure Reduction (focal seizures; 200 mg): 18% | Placebo-adjusted Median Reduction in Focal Seizure Frequency (focal seizures; 200 mg): 26%

COC[C@@H](NC(C)=O)C(=O)NCc1ccccc1 [VIMPAT, Lacosamide]
Placebo-adjusted >50% Focal Seizure Reduction (focal seizures; 400 mg): 17% | Placebo-adjusted Median Reduction in Focal Seizure Frequency (focal seizures; 400 mg): 15-29%
